Laboratory results as given in patent US5077035A, “Radioiodinated benzovesamicol analogs for cholinergic nerve mapping” (priority 1990, dated 1991).

What was measured:
[1] = test system: vesicular sequestration of acetylcholine; settings: cited from earlier work
cholinergic neurons [2] = assay: Tissue distribution of radiotracer in mouse brain and tissues 4 h after intravenous injection (Example 9, Table II); settings: 4 h after i.v. injection
cholinergic neurons [3] = assay: Temporal pattern of distribution in mouse brain, 4 to 24 h (FIGS. 3 and 4); format: in vivo, female CD-1 mice
in vivo = settings: mouse, iv
[4] = test system: central cholinergic neurons; assay: Brain distribution of 5-[125I]iodobenzovesamicol in mice, control and blocked (Example 10, Table III); format: in vivo, CD-1 mice
Protocol: (§1) Radioactive compound 13 as prepared above in Example 1 was dissolved in ethanol/0.005M sodium acetate (1/9) buffer (pH 4.5) at 1 mCi/ml and 10 μCi of the solution was administered intravenously to lightly etherized CD-1 mice. Animals were sacrificed at various time points after injection. Samples of the brain and other tissues were excised, weighed, and counted. As shown below in Table III, the ratios at 4 hours are consistent with the regional distribution pattern of central cholinergic neurons. […] | ^a N = 5 per group. Mice (CD1) weighed 19-21 g. Concentrations are | normalized to a 20 g mouse. […] | prior to i.v. tracer injection; all amimals were killed 4 h after tracer | injection. Controls received an equal volume of vehicle. In vivo

[5] = as above; format: in vivo, CD-1 mice; settings: mouse, iv, 10 uCi, normalized to a 20 g mouse
Protocol: as §1

cholinergic neurons [6] = assay: Blocking of tracer accumulation by pretreatment with unlabeled (-)-vesamicol; settings: i.p.
[7] = Physiological activity of the enantiomers
striatum = assay: In vivo autoradiography in rat; settings: 90 min after i.v. injection
Protocol: injection. Controls received an equal volume of vehicle. In vivo
autoradiography in rat 90 min after i.v. injection of 5[^125 I]IBVM

[8] = ± S.D., normalized to a 25 g mouse
[9] = Blocked: (±)-vesamicol 0.53 mg/kg, ip, 10 min prior, 4 h after i.v. tracer
[10] = Control, 4 h after i.v. injection
[11] = pretreatment with cold (±)-vesamicol 0.53 mg/kg, ip

Compound: O[C@@H]1CCCC[C@H]1N1CCC(c2ccccc2)CC1 (relative stereo) [Vesamicol, trans-2-(4-phenylpiperidino)-cyclohexanol]
- Inhibition of vesicular sequestration of acetylcholine (in words) [1]: potent inhibitor of the vesicular sequestration of acetylcholine

Compound: O[C@@H]1Cc2cccc([125I])c2C[C@H]1N1CCC(c2ccccc2)CC1 (relative stereo) [[^125 I]-(±)-IBVM, (±)-trans-2-hydroxy-5-iodo-3-(4-phenylpiperidino)tetralin]
- Concentration ratio [L. atrium]/[L. ventricle] (cholinergic neurons [2]): 4.7
- Concentration ratio [cortex]/[blood] (cholinergic neurons [2]): 2.3
- Concentration ratio [cortex]/[cerebellum] (cholinergic neurons [2]): 5.9
- Concentration ratio [striatum]/[cerebellum] (cholinergic neurons [2]): 16.5
- % of dose injected, whole brain (cholinergic neurons [2]; normalized to a 25 g mouse): 0.56 ± .07 % OF DOSE INJECTED
- Concentration, cerebellum (cholinergic neurons [2]; [8]): 0.20 ± .04 % DOSE/G
- Concentration, cerebral cortex (cholinergic neurons [2]; [8]): 1.17 ± .20 % DOSE/G
- Concentration, striatum (cholinergic neurons [2]; [8]): 3.29 ± .52 % DOSE/G

Compound: O[C@H]1Cc2cccc([125I])c2C[C@@H]1N1CCC(c2ccccc2)CC1 [[^125 I]-(+)-IBVM]
- Concentration ratio [L. atrium]/[L. ventricle] (cholinergic neurons [2]): 0.9
- Concentration ratio [cortex]/[blood] (cholinergic neurons [2]): 0.3
- Concentration ratio [cortex]/[cerebellum] (cholinergic neurons [2]): 2.0
- Concentration ratio [striatum]/[cerebellum] (cholinergic neurons [2]): 4.3
- % of dose injected, whole brain (cholinergic neurons [2]; normalized to a 25 g mouse): 0.06 ± .01 % OF DOSE INJECTED
- Initial striatal uptake of the two enantiomers (in words) (cholinergic neurons [3]; mouse striatum): nearly identical initial striatal uptake
- Striatal washout (in words) (cholinergic neurons [3]; mouse striatum): rapidly washes out of the striatum
- Striatal level within 4 hours (in words) (cholinergic neurons [3]; mouse striatum, within 4 hours): nearly absent from this tissue
- tissue uptake at 4 h (in vivo; cerebellum): 0.06 ± 0.01 %ID/g
- tissue uptake at 4 h (in vivo; cerebral cortex): 0.12 ± 0.01 %ID/g
- tissue uptake at 4 h (in vivo; striatum): 0.26 ± 0.04 %ID/g

Compound: O[C@@H]1Cc2cccc([125I])c2C[C@H]1N1CCC(c2ccccc2)CC1 [[^125 I]-(-)-IBVM]
- Tissue ratio cortex/cerebellum [4, 9]: 2.9
- Tissue ratio striatum/cerebellum [4, 9]: 8.2
- Tissue ratio cortex/cerebellum [4, 10]: 5.6
- Tissue ratio striatum/cerebellum [4, 10]: 15.8
- Change of cerebellum accumulation of radioactivity [4, 11]: -8%
- Change of striatal and cortical accumulation of radioactivity [4, 11]: -53%
- tissue uptake at 4 h ([5]; blood, Blocked: (±)-vesamicol 0.53 mg/kg, ip, 10 min prior, 4 h after i.v. tracer, read-out: Concentration, blood): 0.45 ± 0.1 %ID/g
- tissue uptake at 4 h ([5]; blood, Control, 4 h after i.v. injection, read-out: Concentration, blood): 1.01 ± 0.7 %ID/g
- tissue uptake at 4 h ([5]; cerebellum, Blocked: (±)-vesamicol 0.53 mg/kg, ip, 10 min prior, 4 h after i.v. tracer, read-out: Concentration, cerebellum): 0.24 ± 0.1 %ID/g
- tissue uptake at 4 h ([5]; cerebellum, Control, 4 h after i.v. injection, read-out: Concentration, cerebellum): 0.26 ± 0.06 %ID/g
- tissue uptake at 4 h ([5]; cortex, Blocked: (±)-vesamicol 0.53 mg/kg, ip, 10 min prior, 4 h after i.v. tracer, read-out: Concentration, cortex): 0.69 ± 0.13 %ID/g
- tissue uptake at 4 h ([5]; cortex, Control, 4 h after i.v. injection, read-out: Concentration, cortex): 1.46 ± 0.25 %ID/g
- tissue uptake at 4 h ([5]; striatum, Blocked: (±)-vesamicol 0.53 mg/kg, ip, 10 min prior, 4 h after i.v. tracer, read-out: Concentration, striatum): 1.97 ± 0.35 %ID/g
- tissue uptake at 4 h ([5]; striatum, Control, 4 h after i.v. injection, read-out: Concentration, striatum): 4.12 ± 0.65 %ID/g
- Concentration ratio [L. atrium]/[L. ventricle] (cholinergic neurons [2]): 5.5
- Concentration ratio [cortex]/[blood] (cholinergic neurons [2]): 6.2
- Concentration ratio [cortex]/[cerebellum] (cholinergic neurons [2]): 11.1
- Concentration ratio [striatum]/[cerebellum] (cholinergic neurons [2]): 27.2
- % of dose injected, whole brain (cholinergic neurons [2]; normalized to a 25 g mouse): 1.03 ± .07 % OF DOSE INJECTED
- Concentration, cerebral cortex (cholinergic neurons [2]; [8]): 2.56 ± .21 % DOSE/G
- Lowering of 4 hour striatal and cortical accumulation (cholinergic neurons [6]; pretreatment with unlabeled (-)-vesamicol hydrochloride 605 μg/kg, 10 min prior to tracer): 65%
- Physiological activity versus the other enantiomer (in words) [7]: more physiologically active than the positive
- Neuronal specificity in cortex and striatum (cholinergic neurons [3]; 4-24 h, 4 h activity of (+)-enantiomer as estimate of non-neuronal binding): > 95%
- Specific neuronal binding in cortex and striatum (cholinergic neurons [3]; 4 to 24 h, cerebellar concentration as approximation of non-neuronal binding): > 95%
- Radioactivity in cerebral cortex and striatum over time (in words) (cholinergic neurons [3]; 4 to 24 hours following injection): remains at a high and fairly constant level
- Initial striatal uptake of the two enantiomers (in words) (cholinergic neurons [3]; mouse striatum): nearly identical initial striatal uptake
- tissue uptake at 4 h (in vivo; cerebellum): 0.23 ± 0.04 %ID/g
- tissue uptake at 4 h (in vivo; striatum): 6.26 ± 0.46 %ID/g
- Accumulation in striatum by autoradiography (in words) (striatum): selective accumulation of tracer in the striatum

Compound: (-)-vesamicol [reference compound]
- Toxicity limitation of dose (in words) (cholinergic neurons [6]; doses larger than 605 μg/kg): larger doses of (-)-vesamicol could not be injected due to toxicity limitations
- Potency relative to (+)-vesamicol ([1]; enantioselectivity versus (+)-vesamicol): 25 times more potent
